Data: patent US9670193B2 (Novartis AG, priority 2011, dated 2017)

Tests used:
Assay type in all cases: biochemical
Settings in all cases: 5 μM substrate, 2 hours at room temperature
[1] = biological target: Human recombinant full length HDAC6 (Homo sapiens (Human), UniProt Q9UBN7); assay: HDAC6 assay (Test 3), acetyl-Gly-Ala-Lys(acetyl)-AMC substrate
Procedure: (§1) Human recombinant HDAC4 was expressed in full length form (aa 2-1084) in Sf9 insect cells (obtained from ATCC) using baculovirus generated with Bac-to-Bac system (Invitrogen). Test compounds were serially diluted to reach final test concentrations from 0.000128 μM to 10 μM. HDAC4 and test compounds were incubated in 25 mM Tris buffer pH 8.0 containing 137 mM NaCl, 2.7 mM KCl, 1 mM MgCl2, 0.05% (w/v) bovine serum albumine and 0.005% (v/v) Triton-X-100 for 2 hours at room temperature in presence of 5 μM of acetyl-Gly-Ala-Lys(ε-trifluoroacetyl)-AMC (AMC=7-amino-4-methyl coumarin) in a final volume of 9 μl. Control wells with HDAC4 only (positive control) and without HDAC4 (negative control) were included on the microplate. Bovine trypsin (4.5 μl of a 300 nM solution) was added and the plate incubated for additional 15 minutes at room temperature. The plate was placed in a fluorescence microplate reader, and read at an excitation wavelength of 360 nm and an emission wavelength of 450 nm with a 10 nm bandpath. Fluorescence values for all wells containing HDAC4 (positive control and wells with test compound) were corrected by subtracting negative control fluorescence values, and IC50 values were calculated by fitting the dose-response curves to a 4-parameter logistic function.
Test 3: HDAC6 Assay Description
A similar assay procedure as described in Test 1 was used for HDAC6. Human recombinant full length HDAC6 expressed in a baculovirus expression system was purchased from BPS BioSciences (San Diego, Calif., U.S.A.). The substrate used in the […] assay was 5 μM of acetyl-Gly-Ala-Lys (acetyl)-AMC.

[2] = biological target: Human recombinant full length HDAC1 (Homo sapiens (Human), UniProt Q13547); assay: HDAC1 assay (Test 2), acetyl-Gly-Ala-Lys(acetyl)-AMC substrate
Human recombinant full length HDAC1, sequence (Q13547 whole entry): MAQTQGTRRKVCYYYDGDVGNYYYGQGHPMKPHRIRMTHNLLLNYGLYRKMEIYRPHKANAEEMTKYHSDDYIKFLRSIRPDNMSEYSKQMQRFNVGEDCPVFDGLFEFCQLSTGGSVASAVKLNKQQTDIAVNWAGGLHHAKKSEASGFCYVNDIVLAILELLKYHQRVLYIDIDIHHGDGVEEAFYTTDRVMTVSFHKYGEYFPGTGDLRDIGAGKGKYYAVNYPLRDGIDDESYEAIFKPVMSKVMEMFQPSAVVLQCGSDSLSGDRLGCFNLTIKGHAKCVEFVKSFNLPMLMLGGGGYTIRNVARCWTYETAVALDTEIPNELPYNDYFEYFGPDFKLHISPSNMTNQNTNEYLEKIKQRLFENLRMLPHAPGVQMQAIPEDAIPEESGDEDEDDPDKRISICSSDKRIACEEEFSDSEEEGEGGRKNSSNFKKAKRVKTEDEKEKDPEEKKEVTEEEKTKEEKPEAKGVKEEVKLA
Procedure: as §1
Test 2: HDAC1 Assay Description
A similar assay procedure as described in Test 1 was used for HDAC1. Human recombinant full length HDAC1 expressed in a baculovirus expression system was purchased from BPS BioSciences (San Diego, Calif., U.S.A.). The substrate used in the […] assay was 5 μM of acetyl-Gly-Ala-Lys(acetyl)-AMC.

[3] = biological target: Human recombinant HDAC4 (Homo sapiens (Human), UniProt P56524); assay: HDAC4 assay (Test 1), fluorescence, acetyl-Gly-Ala-Lys(ε-trifluoroacetyl)-AMC substrate
Human recombinant HDAC4, sequence (P56524 2-1084): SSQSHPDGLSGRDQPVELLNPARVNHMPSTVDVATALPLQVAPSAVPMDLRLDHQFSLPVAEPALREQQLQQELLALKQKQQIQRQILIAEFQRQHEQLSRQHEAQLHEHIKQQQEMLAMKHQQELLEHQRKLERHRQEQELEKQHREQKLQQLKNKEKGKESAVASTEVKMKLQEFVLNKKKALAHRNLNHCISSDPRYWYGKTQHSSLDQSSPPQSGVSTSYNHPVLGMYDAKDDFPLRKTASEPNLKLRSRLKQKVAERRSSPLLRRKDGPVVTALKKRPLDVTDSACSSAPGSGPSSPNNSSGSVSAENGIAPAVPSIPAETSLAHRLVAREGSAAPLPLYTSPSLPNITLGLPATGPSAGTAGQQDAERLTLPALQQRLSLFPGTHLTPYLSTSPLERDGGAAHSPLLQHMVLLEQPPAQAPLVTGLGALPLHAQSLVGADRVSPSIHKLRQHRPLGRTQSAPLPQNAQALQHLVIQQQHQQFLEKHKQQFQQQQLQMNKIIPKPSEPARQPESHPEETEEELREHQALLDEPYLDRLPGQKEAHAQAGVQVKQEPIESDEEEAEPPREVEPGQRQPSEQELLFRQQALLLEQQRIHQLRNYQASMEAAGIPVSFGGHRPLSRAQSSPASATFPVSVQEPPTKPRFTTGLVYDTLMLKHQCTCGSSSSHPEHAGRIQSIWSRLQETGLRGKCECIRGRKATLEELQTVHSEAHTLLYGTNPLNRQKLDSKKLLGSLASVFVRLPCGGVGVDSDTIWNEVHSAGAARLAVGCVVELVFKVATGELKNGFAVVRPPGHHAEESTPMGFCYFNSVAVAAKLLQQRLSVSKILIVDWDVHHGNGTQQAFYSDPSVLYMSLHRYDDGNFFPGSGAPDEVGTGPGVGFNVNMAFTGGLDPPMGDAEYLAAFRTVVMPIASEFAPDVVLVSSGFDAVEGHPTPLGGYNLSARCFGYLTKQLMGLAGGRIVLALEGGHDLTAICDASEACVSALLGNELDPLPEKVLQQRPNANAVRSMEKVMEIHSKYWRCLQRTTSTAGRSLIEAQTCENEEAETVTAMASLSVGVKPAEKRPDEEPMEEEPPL
Procedure: Test 1: HDAC4 Assay Description
as §1

Human recombinant full length HDAC6, sequence (Q9UBN7 whole entry, the tested form may be a part): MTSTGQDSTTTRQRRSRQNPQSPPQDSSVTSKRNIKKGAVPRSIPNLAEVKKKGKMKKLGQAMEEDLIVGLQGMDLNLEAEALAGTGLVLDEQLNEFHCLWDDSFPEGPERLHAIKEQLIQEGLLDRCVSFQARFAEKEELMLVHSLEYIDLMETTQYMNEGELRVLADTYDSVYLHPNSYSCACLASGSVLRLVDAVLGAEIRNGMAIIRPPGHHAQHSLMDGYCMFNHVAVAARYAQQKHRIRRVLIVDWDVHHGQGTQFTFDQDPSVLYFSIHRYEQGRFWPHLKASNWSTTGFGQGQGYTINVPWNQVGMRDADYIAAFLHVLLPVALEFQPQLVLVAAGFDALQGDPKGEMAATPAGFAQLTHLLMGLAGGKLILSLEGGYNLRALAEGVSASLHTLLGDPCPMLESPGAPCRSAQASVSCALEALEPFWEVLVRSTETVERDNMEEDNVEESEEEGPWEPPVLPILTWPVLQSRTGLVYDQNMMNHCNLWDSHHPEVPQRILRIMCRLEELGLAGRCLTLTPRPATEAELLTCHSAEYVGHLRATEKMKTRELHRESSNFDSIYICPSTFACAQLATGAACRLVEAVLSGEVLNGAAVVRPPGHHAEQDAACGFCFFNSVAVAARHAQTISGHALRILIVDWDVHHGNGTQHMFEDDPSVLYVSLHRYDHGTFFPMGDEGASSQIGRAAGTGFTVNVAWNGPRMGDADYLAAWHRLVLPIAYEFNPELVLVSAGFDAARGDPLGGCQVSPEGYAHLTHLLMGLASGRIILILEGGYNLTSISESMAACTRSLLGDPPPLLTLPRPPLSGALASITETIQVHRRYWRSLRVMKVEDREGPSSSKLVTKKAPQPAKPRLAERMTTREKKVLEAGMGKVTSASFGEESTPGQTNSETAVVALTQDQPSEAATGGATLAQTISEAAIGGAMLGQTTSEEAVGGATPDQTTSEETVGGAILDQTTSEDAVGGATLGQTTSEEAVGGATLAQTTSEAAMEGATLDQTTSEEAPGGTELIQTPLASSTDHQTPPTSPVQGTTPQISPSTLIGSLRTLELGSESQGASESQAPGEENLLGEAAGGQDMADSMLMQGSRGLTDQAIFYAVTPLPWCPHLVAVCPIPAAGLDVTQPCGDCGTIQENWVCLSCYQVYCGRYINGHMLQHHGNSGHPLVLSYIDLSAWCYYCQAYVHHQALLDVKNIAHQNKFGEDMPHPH

Row | Compound | IC50 [1] | IC50 [2] | IC50 [3]
1 | CN(Cc1ccncc1)c1ncc(-c2noc(C(F)(F)F)n2)cn1 [Example 3, N-methyl-N-(pyridin-4-ylmethyl)-5-(5-(trifluoromethyl)-1,2,4-oxadiazol-3-yl)pyrimidin-2-amine] | 6700 nM | 3200 nM | 39 nM
2 | CN(Cc1ccnc(Cl)c1)c1ncc(-c2noc(C(F)(F)F)n2)cn1 [Example 5, N-((2-chloropyridin-4-yl)methyl)-N-methyl-5-(5-(trifluoromethyl)-1,2,4-oxadiazol-3-yl)pyrimidin-2-amine] | 2100 nM | 1700 nM | 40 nM
3 | CC(Nc1ncc(-c2noc(C(F)(F)F)n2)cn1)c1ccccc1 (stereo not drawn) [Example 7, N-(1-phenylethyl)-5-(5-(trifluoromethyl)-1,2,4-oxadiazol-3-yl)pyrimidin-2-amine] | > 400 nM | > 10000 nM | 120 nM
4 | Cc1ccc(CNc2ncc(-c3noc(C(F)(F)F)n3)cn2)cn1 [Example 8, N-((6-methylpyridin-3-yl)methyl)-5-(5-(trifluoromethyl)-1,2,4-oxadiazol-3-yl)pyrimidin-2-amine] | 250 nM | 3000 nM | 25 nM
5 | CC[C@@H](Nc1ncc(-c2noc(C(F)(F)F)n2)cn1)c1ccccc1 [Example 13, (R)—N-(1-phenylpropyl)-5-(5-(trifluoromethyl)-1,2,4-oxadiazol-3-yl)pyrimidin-2-amine] | 140 nM | 1700 nM | 22 nM
6 | CN(CCc1ccncc1)c1ncc(-c2noc(C(F)(F)F)n2)cn1 [Example 14, N-methyl-N-(2-(pyridin-4-yl)ethyl)-5-(5-(trifluoromethyl)-1,2,4-oxadiazol-3-yl)pyrimidin-2-amine] | > 10000 nM | 7600 nM | 110 nM
7 | CCC(Nc1ncc(-c2noc(C(F)(F)F)n2)cn1)c1ccncc1 (stereo not drawn) [Example 15, N-(1-(pyridin-4-yl)propyl)-5-(5-(trifluoromethyl)-1,2,4-oxadiazol-3-yl)pyrimidin-2-amine] | 210 nM | 2600 nM | 20 nM
8 | Cc1cc(C(C)Nc2ncc(-c3noc(C(F)(F)F)n3)cn2)ccn1 (stereo not drawn) [Example 16] | 350 nM | 1600 nM | 44 nM
9 | Cc1cc(CN(C)c2ncc(-c3noc(C(F)(F)F)n3)cn2)ccn1 [Example 17, N-methyl-N-((2-methylpyridin-4-yl)methyl)-5-(5-(trifluoromethyl)-1,2,4-oxadiazol-3-yl)pyrimidin-2-amine] | 3500 nM | 2200 nM | 34 nM
10 | C[C@H](CN(C)Cc1ccccc1)NC(=O)c1ccc(-c2noc(C(F)(F)F)n2)nc1 [Example 21, (R)—N-(1-(benzyl(methyl)amino)propan-2-yl)-6-(5-(trifluoromethyl)-1,2,4-oxadiazol-3-yl)nicotinamide] | > 10000 nM | > 10000 nM | 18 nM
11 | C[C@H](CN(C)C)NC(=O)c1ncc(-c2noc(C(F)(F)F)n2)cc1Cl [Example 25, (R)-3-chloro-N-(1-(dimethylamino)propan-2-yl)-5-(5-(trifluoromethyl)-1,2,4-oxadiazol-3-yl)picolinamide] | > 10000 nM | > 10000 nM | 3600 nM
12 | FC(F)(F)c1nc(-c2ccc(NCc3ccccc3)cn2)no1 [Example 27, N-benzyl-6-(5-(trifluoromethyl)-1,2,4-oxadiazol-3-yl)pyridin-3-amine] | > 10000 nM | 9600 nM | 2800 nM
13 | FC(F)(F)c1nc(-c2ccc(NCc3ccccc3)nc2)no1 [Example 28, N-benzyl-5-(5-(trifluoromethyl)-1,2,4-oxadiazol-3-yl)pyridin-2-amine] | 3000 nM | > 10000 nM | 73 nM
14 | CC(Nc1ccc(-c2noc(C(F)(F)F)n2)cn1)c1ccccc1 (stereo not drawn) [Example 29, N-(1-phenylethyl)-5-(5-(trifluoromethyl)-1,2,4-oxadiazol-3-yl)pyridin-2-amine] | 640 nM | 6200 nM | 27 nM

More lines, now with the values ahead:

Row | IC50 [1] | IC50 [2] | IC50 [3] | Compound
15 | 1700 nM | > 10000 nM | 460 nM | CC(=O)Nc1cnc(-c2noc(C(F)(F)F)n2)cn1 [Example 1, N-(5-(5-(trifluoromethyl)-1,2,4-oxadiazol-3-yl)pyrazin-2-yl)acetamide]
16 | 2600 nM | > 10000 nM | 1400 nM | N#Cc1ccc(C(=O)Nc2cnc(-c3noc(C(F)(F)F)n3)cn2)cc1 [Example 2, 4-Cyano-N-(5-(5-(trifluoromethyl)-1,2,4-oxadiazol-3-yl)pyrazin-2-yl)benzamide]
17 | 320 nM | > 10000 nM | 36 nM | FC(F)(F)c1nc(-c2cnc(NCc3ccccc3)nc2)no1 [Example 4, N-benzyl-5-(5-(trifluoromethyl)-1,2,4-oxadiazol-3-yl)pyrimidin-2-amine]
18 | 990 nM | 620 nM | 44 nM | FC(F)(F)c1nc(-c2cnc(NCc3ccncc3)nc2)no1 [Example 6, N-(pyridin-4-ylmethyl)-5-(5-(trifluoromethyl)-1,2,4-oxadiazol-3-yl)pyrimidin-2-amine]
19 | 560 nM | 4100 nM | 22 nM | CC(Nc1ncc(-c2noc(C(F)(F)F)n2)cn1)c1ccncc1 (stereo not drawn) [Example 9, N-(1-(pyridin-4-yl)ethyl)-5-(5-(trifluoromethyl)-1,2,4-oxadiazol-3-yl)pyrimidin-2-amine]
20 | 1100 nM | 6600 nM | 140 nM | FC(F)(F)c1nc(-c2cnc(NCc3cccnc3)nc2)no1 [Example 10, N-(pyridin-3-ylmethyl)-5-(5-(trifluoromethyl)-1,2,4-oxadiazol-3-yl)pyrimidin-2-amine]
21 | 550 nM | 510 nM | 240 nM | Cc1cccc(CNc2ncc(-c3noc(C(F)(F)F)n3)cn2)n1 [Example 11, N-((6-methylpyridin-2-yl)methyl)-5-(5-(trifluoromethyl)-1,2,4-oxadiazol-3-yl)pyrimidin-2-amine]
22 | 340 nM | 3500 nM | 49 nM | C[C@@H](Nc1ncc(-c2noc(C(F)(F)F)n2)cn1)c1ccccc1 [Example 12, (R)—N-(1-phenylethyl)-5-(5-(trifluoromethyl)-1,2,4-oxadiazol-3-yl)pyrimidin-2-amine]
23 | > 10000 nM | > 10000 nM | 250 nM | C[C@H](CN(C)C)NC(=O)c1ccc(-c2noc(C(F)(F)F)n2)nc1 [Example 18, (R)—N-(1-(dimethylamino)propan-2-yl)-6-(5-(trifluoromethyl)-1,2,4-oxadiazol-3-yl)nicotinamide]
24 | > 10000 nM | 1700 nM | 350 nM | CC(CN(C)C)NC(=O)c1ccc(-c2noc(C(F)(F)F)n2)nc1 (stereo not drawn) [Example 19, N-(1-(dimethylamino)propan-2-yl)-6-(5-(trifluoromethyl)-1,2,4-oxadiazol-3-yl)nicotinamide]
25 | > 10000 nM | > 10000 nM | 4300 nM | C[C@@H](CO)NC(=O)c1ccc(-c2noc(C(F)(F)F)n2)nc1 [Example 20, (S)—N-(1-hydroxypropan-2-yl)-6-(5-(trifluoromethyl)-1,2,4-oxadiazol-3-yl)nicotinamide]
26 | > 10000 nM | > 10000 nM | 160 nM | CCN(CC)C[C@H](NC(=O)c1ccc(-c2noc(C(F)(F)F)n2)nc1)C(C)C [Example 22, (R)—N-(1-(diethylamino)-3-methylbutan-2-yl)-6-(5-(trifluoromethyl)-1,2,4-oxadiazol-3-yl)nicotinamide]
27 | > 10000 nM | > 10000 nM | 28 nM | CCN(CC)C[C@@H](C)NC(=O)c1ccc(-c2noc(C(F)(F)F)n2)nc1 [Example 23, (R)—N-(1-(diethylamino)propan-2-yl)-6-(5-(trifluoromethyl)-1,2,4-oxadiazol-3-yl)nicotinamide]
28 | > 10000 nM | > 10000 nM | 990 nM | C[C@H](CN(C)C)NC(=O)c1ccc(-c2noc(C(F)(F)F)n2)cn1 [Example 24, (R)—N-(1-(dimethylamino)propan-2-yl)-5-(5-(trifluoromethyl)-1,2,4-oxadiazol-3-yl)picolinamide]
29 | > 10000 nM | > 10000 nM | 420 nM | C[C@H](CN(C)C)NC(=O)c1cnc(-c2noc(C(F)(F)F)n2)nc1 [Example 26, (R)—N-(1-(dimethylamino)propan-2-yl)-2-(5-(trifluoromethyl)-1,2,4-oxadiazol-3-yl)pyrimidine-5-carboxamide]
